Results from article PMC9403976, “Elucidating the path to Plasmodium prolyl-tRNA synthetase inhibitors that overcome halofuginone resistance” (Nature Communications, 2022).

Key:
[1] = tested on: P. falciparum Dd2-2D4; experiment: P. falciparum asexual blood stage (ABS) growth assay, SYBR Green, 72 h, wild-type parasites; assay type: cell-based, Plasmodium falciparum; conditions: Plasmodium falciparum, DD2; SI Fig 16b; values on -log scale; read-out: ABS - Dd2-2D4 (converted)
[2] = molecular target: HsProRS (Homo sapiens, UniProt P07814); experiment: TR-FRET ligand displacement assay with tracer MAT379 (CoraFluor-1-Halo and anti-His6 antibody formats); assay type: binding; set-up: made in house; host or cells: E. coli SoluBL-21
Sequence of HsProRS (P07814 996-1512): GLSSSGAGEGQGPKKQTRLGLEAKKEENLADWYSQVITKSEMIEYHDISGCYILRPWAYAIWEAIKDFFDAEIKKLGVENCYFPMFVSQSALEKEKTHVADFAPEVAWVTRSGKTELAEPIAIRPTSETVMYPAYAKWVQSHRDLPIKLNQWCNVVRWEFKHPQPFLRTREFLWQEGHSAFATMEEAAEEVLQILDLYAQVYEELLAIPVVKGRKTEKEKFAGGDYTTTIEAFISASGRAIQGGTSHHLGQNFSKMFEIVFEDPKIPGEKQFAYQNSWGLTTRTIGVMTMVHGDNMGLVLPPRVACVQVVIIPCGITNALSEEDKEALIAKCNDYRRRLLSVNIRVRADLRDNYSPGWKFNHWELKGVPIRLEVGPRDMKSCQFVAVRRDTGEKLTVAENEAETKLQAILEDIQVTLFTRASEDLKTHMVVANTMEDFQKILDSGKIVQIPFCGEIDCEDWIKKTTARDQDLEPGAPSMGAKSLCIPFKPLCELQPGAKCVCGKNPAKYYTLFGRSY

**Q.** `O=C(NC1Cc2ccccc2C1)c1nccnc1NC(=O)C1(O)CCCCC1` [compound 15] was tested. Which EC50 [1] did it give?
**A.** 1.5 µM

**Q.** And the Kd ([2]; HsProRS (KD [nM]) mean, no added proline/ATP (-))?
**A.** 2700 nM

**Q.** And the Kd ([2]; HsProRS - best Kd, SI Fig 16a, values on -log scale)?
**A.** 21.8 nM
